Reference: patent publication US12187713B2, “Immunomodulators, compositions and methods thereof” (Betta Pharmaceuticals Co., Ltd, priority 2019, dated 2025)

These compounds were tested against PD-1/PD-L1 (Homo sapiens (Human), UniProt Q9NZQ7) (assay: PD-1/PD-L1 Binding Assay (Alphascreen)). Conditions: numeric values.
Protocol: PD-1/PD-L1 Binding Assay (Alphascreen)
The assays were conducted in a standard black 384-well polystyrene plate with a final volume of 20 μL. Inhibitors were first serially diluted in DMSO and then added to the plate wells before the addition of other reaction components. The final concentration of DMSO in the assay was […]. Add 100 nL/well of compound to the 384 reaction plate (6008280, PerkinElmer) with Echo and centrifuge at 1000 rpm for 1 minute. Add 5 μL/well 4×PD-L1 solutions to the 384 reaction plate, centrifuge at 1000 rpm for 1 minute, and add 5 μL/well 4×PD-1 solutions, centrifuge at 1000 rpm for 1 minute, and incubate at 25° C. for 15 minutes. The concentrations of the compounds were 300, 100, 33.33, 11.11, 3.70, 1.23, 0.41, 0.137, 0.046, 0.015, 0 nM, respectively. Add 10 μL/well 2× Anti-6×His AlphaLISA Acceptor beads and Streptavidin Donor beads solution (PerkinElmer-AL356F) to the above 384 reaction plate, centrifuge at 1000 rpm for 1 minute, and incubate at 25° C. in the dark for 120 minutes. Read the AlphaLISA signal value using the Envision Reader. IC50 determination was performed by fitting the curve of percent control activity versus the log of the inhibitor concentration using the GraphPad Prism 8.0 software.

Sequence of PD-1/PD-L1 (Q9NZQ7 19-238): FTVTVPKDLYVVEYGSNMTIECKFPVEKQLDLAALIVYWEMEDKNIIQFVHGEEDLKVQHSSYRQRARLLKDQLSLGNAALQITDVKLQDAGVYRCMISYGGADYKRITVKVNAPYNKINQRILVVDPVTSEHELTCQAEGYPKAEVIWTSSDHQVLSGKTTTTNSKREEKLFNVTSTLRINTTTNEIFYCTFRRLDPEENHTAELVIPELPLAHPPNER

`Cc1c(-c2nc3cc(CNCCO)c(OCc4cncc(S(C)(=O)=O)c4)cc3o2)cccc1-c1cccc(-c2nc3cc(CN4CCC[C@H]4C(=O)O)c(OC(F)F)cc3o2)c1C` [Example 121, ((6-(difluoromethoxy)-2-(3′-(5-(((2-hydroxyethyl)amino)methyl)-6-((5-(methylsulfonyl)pyridin-3-yl)methoxy)benzo[d]oxazol-2-yl)-2,2′-dimethyl-[1,1′-biphenyl]-3-yl)benzo[d]oxazol-5-yl)methyl)-L-proline] and `Cc1c(-c2nc3cc(CN(C)[C@@H]4CCC[C@@H]4O)c(OC(F)F)cc3o2)cccc1-c1cccc(-c2nc3cc(CN4CCC[C@H]4C(=O)O)c(OC(F)F)cc3o2)c1C` [Example 1, ((6-(difluoromethoxy)-2-(3′-(6-(difluoromethoxy)-5-((((1R,2S)-2-hydroxycyclopentyl)(methyl)amino)methyl)benzo[d]oxazol-2-yl)-2,2′-dimethyl-[1,1′-biphenyl]-3-yl)benzo[d]oxazol-5-yl)methyl)-L-proline] are within 1.5-fold of each other in IC50: 0.6 nM for the first, 0.89 nM for the second.

`Cc1cc(-c2cccc(-c3cccc(-c4nc5cc(CN6CCC[C@H]6C(=O)O)c(OC(F)F)cc5o4)c3C)c2C)cc(C)c1CN1CCCC1` [Example 234, ((6-(difluoromethoxy)-2-(2,2′,3″,5″-tetramethyl-4″-(pyrrolidin-1-ylmethyl)-[1,1′:3′,1″- terphenyl]-3-yl)benzo[d]oxazol-5-yl)methyl)-L-proline] and `Cc1c(-c2nc3c(o2)CNC3)cccc1-c1cccc(-c2nc3cc(CN4CCC[C@H]4C(=O)O)c(OC(F)F)cc3o2)c1C` [Example 202, ((6-(difluoromethoxy)-2-(3′-(5,6-dihydro-4H-pyrrolo[3,4-d]oxazol-2-yl)-2,2′-dimethyl-[1,1′-biphenyl]-3-yl)benzo[d]oxazol-5-yl)methyl)proline] are within 1.5-fold of each other in IC50: 0.52 nM for the first, 0.37 nM for the second.

First: Cc1c(-c2nc3cc(CN4CC5CC(=O)CC4C5)c(OC(F)F)cc3o2)cccc1-c1cccc(-c2nc3cc(CN4CCC[C@H]4C(=O)O)c(OC(F)F)cc3o2)c1C (stereo partly drawn) [Example 75, ((6-(difluoromethoxy)-2-(3′-(6-(difluoromethoxy)-5-((3-oxo-6-azabicyclo [3.2.1]octan-6-yl)methyl)benzo[d]oxazol-2-yl)-2,2′-dimethyl-[1,1′-biphenyl]-3-yl)benzo[d]oxazol-5-yl)methyl)-L-proline]
Second: Cc1c(-c2nc3cc(CN4CC(C(C)(C)O)C4)c(OC(F)F)cc3o2)cccc1-c1cccc(-c2nc3cc(CN4CCC[C@H]4C(=O)O)c(OC(F)F)cc3o2)c1C [Example 69, ((6-(difluoromethoxy)-2-(3′-(6-(difluoromethoxy)-5-((3-(2-hydroxypropan-2-yl)azetidin-1-yl)methyl)benzo[d]oxazol-2-yl)-2,2′-dimethyl-[1,1′-biphenyl]-3-yl)benzo[d]oxazol-5-yl)methyl)-L-proline]
The IC50 of the first is 20-fold higher: 10 nM for the first, 0.49 nM for the second. The second is the more potent here.

Same assay, conditions: range symbols

First: COc1nc(OCc2cccc(-c3cccc(-c4nc5cc(CN6CCC[C@H]6C(=O)O)c(OC(F)F)cc5o4)c3C)c2C)nc(OC)c1CN1CC(C)(C)C1 [Example 213, ((6-(difluoromethoxy)-2-(3′-(((5-((3,3-dimethylazetidin-1-yl)methyl)-4,6-dimethoxypyrimidin-2-yl)oxy)methyl)-2,2′-dimethyl-[1,1′-biphenyl]-3-yl)benzo[d]oxazol-5-yl)methyl)-L-proline]
Second: COc1nc(-c2cccc(-c3cccc(-c4nc5cc(CN6CCC[C@H]6C(=O)O)c(OC(F)F)cc5o4)c3C)c2C)ccc1CN1CCC[C@H]1C [Example 279, ((6-(difluoromethoxy)-2-(3′-(6-methoxy-5-(((R)-2-methylpyrrolidin-1-yl)methyl)pyridin-2-yl)-2,2′-dimethyl-[1,1′-biphenyl]-3-yl)benzo[d]oxazol-5-yl)methyl)-L-proline]
The IC50 of the first is higher: 5 to 50 nM for the first, 0.1 to 5 nM for the second. The second is the more potent here.

`Cc1c(-c2ccc(CN3CCCC3)c(Cl)c2)cccc1-c1cccc(-c2nc3cc(CN4CCC[C@H]4C(=O)O)c(OC(F)F)cc3o2)c1C` [Example 219, ((2-(3″-chloro-2,2′-dimethyl-4″-(pyrrolidin-1-ylmethyl)-[1,1′:3′,1″-terphenyl]-3-yl)-6-(difluoromethoxy)benzo[d]oxazol-5-yl)methyl)proline] and `Cc1c(-c2nc3cc(CN4CCC[C@H]4C(=O)O)c(OC(F)F)cc3o2)cccc1-c1cccc(-c2ccc(CN3CCCC3)cc2F)c1Cl` [Example 223, ((2-(2′-chloro-2″-fluoro-2-methyl-4″- (pyrrolidin-1-ylmethyl)-[1,1′:3′,1″-terphenyl]-3-yl)-6-(difluoromethoxy)benzo[d]oxazol-5-yl)methyl)-L-proline] fall in the same range of IC50: 0.1 to 5 nM for the first, 0.1 to 5 nM for the second.

First: Cc1c(-c2nc3cc(CN4CCC[C@H]4C(=O)O)c(OC(F)F)cc3o2)cccc1-c1cccc(N2CCC(NCC3(CO)CC3)CC2)c1C [Example 307, ((6-(difluoromethoxy)-2-(3′-(4-(((1-(hydroxymethyl)cyclopropyl)methyl)amino)piperidin-1-yl)-2,2′-dimethyl-[1,1′-biphenyl]-3-yl)benzo[d]oxazol-5-yl)methyl)-L-proline]
Second: Cc1c(Oc2ccc(CNC[C@@H]3CCC(=O)N3)cn2)cccc1-c1cccc(-c2nc3cc(CN4CCC[C@H]4C(=O)O)c(OC(F)F)cc3o2)c1C [Example 214, ((6-(difluoromethoxy)-2-(2,2′-dimethyl-3′-((5-(((((S)-5-oxopyrrolidin-2-yl)methyl)amino)methyl)pyridin-2-yl)oxy)-[1,1′-biphenyl]-3-yl)benzo[d]oxazol-5-yl)methyl)-L-proline]
The IC50 of the first is lower: 0.1 to 5 nM for the first, > 50 nM for the second. The first is the more potent here.

`Cc1c(-c2ccc3c(c2)CN(CCC(=O)O)C3)cccc1-c1cccc(-c2nc3cc(CN4CCC[C@H]4C(=O)O)c(OC(F)F)cc3o2)c1C` [Example 290, ((2-(3′-(2-(2-carboxyethyl)isoindolin-5-yl)-2,2′-dimethyl-[1,1′-biphenyl]-3-yl)-6-(difluoromethoxy)benzo[d]oxazol-5-yl)methyl)-L-proline] and `Cc1c(-c2nc3cc(CN[C@@H]4CCC[C@@H]4O)ccc3o2)cccc1-c1cccc(-c2nc3cc(CN4CCC[C@@H]4C(=O)O)c(OC(F)F)cc3o2)c1C` [Example 310, ((6-(difluoromethoxy)-2-(3′-(5-((((1R,2S)-2-hydroxycyclopentyl)amino)methyl)benzo[d]oxazol-2-yl)-2,2′-dimethyl-[1,1′-biphenyl]-3-yl)benzo[d]oxazol-5-yl)methyl)-D-proline] fall in the same range of IC50: 0.1 to 5 nM for the first, 0.1 to 5 nM for the second.

`Cc1c(-c2nc3cc(CN(C)C)c(OCc4cncc(S(C)(=O)=O)c4)cc3o2)cccc1-c1cccc(-c2nc3cc(CN4CCC[C@H]4C(=O)O)c(OC(F)F)cc3o2)c1C` [Example 123, ((6-(difluoromethoxy)-2-(3′-(5-((dimethylamino)methyl)-6-((5-(methylsulfonyl)pyridin-3-yl)methoxy)benzo[d]oxazol-2-yl)-2,2′-dimethyl-[1,1′-biphenyl]-3-yl)benzo[d]oxazol-5-yl)methyl)-L-proline] and `Cc1c(-c2nc3cc(CN4CCC4C)c(OC(F)F)cc3o2)cccc1-c1cccc(-c2nc3cc(CN4CCC[C@H]4C(=O)O)c(OC(F)F)cc3o2)c1C` (stereo partly drawn) [Example 60, ((6-(difluoromethoxy)-2-(3′-(6-(difluoromethoxy)-5-((2-methylazetidin-1-yl)methyl)benzo[d]oxazol-2-yl)-2,2′-dimethyl-[1,1′-biphenyl]-3-yl)benzo[d]oxazol-5-yl)methyl)-L-proline] fall in the same range of IC50: 0.1 to 5 nM for the first, 0.1 to 5 nM for the second.

First: COc1nc(-c2cccc(-c3cccc(-c4nc5cc(CN6CCC[C@H]6C(=O)O)c(OC(F)F)cc5o4)c3C)c2C)ccc1CN1C2CCC1CC2 [Example 278, ((2-(3′-(5-(((1s,4s)-7-azabicyclo[2.2.1]heptan-7-yl)methyl)-6-methoxypyridin-2-yl)-2,2′-dimethyl-[1,1′-biphenyl]-3-yl)-6-(difluoromethoxy)benzo[d]oxazol-5-yl)methyl)-L-proline]
Second: COc1nc(-c2cccc(-c3cccc(-c4nc5cc(CN6CCC[C@H]6C(=O)O)c(OC(F)F)cc5o4)c3C)c2C)ccc1CN1CCC(C(F)F)C1 (stereo partly drawn) [Example 275, ((6-(difluoromethoxy)-2-(3′-(5-((3-(difluoromethyl)pyrrolidin-1-yl)methyl)-6-methoxypyridin-2-yl)-2,2′-dimethyl-[1,1′-biphenyl]-3-yl)benzo[d]oxazol-5-yl)methyl)-L-proline]
The IC50 of the first is lower: 0.1 to 5 nM for the first, 5 to 50 nM for the second.

Compared with `Cc1c(-c2nc3cc(CN4CCC[C@H]4C(=O)O)c(OC(F)F)cc3o2)cccc1-c1cccc(-c2nc3cc(CNC4CC(O)C4)cc(C#N)c3o2)c1C` (stereo partly drawn) [Example 155], `Cc1c(-c2nc3cc(CN4CCC[C@H]4C(=O)O)c(OC(F)F)cc3o2)cccc1-c1cccc(-c2nc3cc(CN4CC[C@@H](CO)C4)cc(C#N)c3o2)c1C` [Example 154, ((2-(3′-(7-cyano-5-(((R)-3-(hydroxymethyl)pyrrolidin-1-yl)methyl)benzo [d]oxazol-2-yl)-2,2′-dimethyl-[1,1′-biphenyl]-3-yl)-6-(difluoromethoxy)benzo[d]oxazol-5-yl)methyl)-L-proline] is higher in IC50: 0.1 to 5 nM for the first, 5 to 50 nM for the second. The first is the more potent here.

In the case of `Cc1c(-c2nc3cc(CN4CCC[C@H]4C(=O)O)c(OC(F)F)cc3o2)cccc1-c1cccc(-c2cnc(CN3CCCC3)c(F)c2)c1CF` [Example 269, ((6-(difluoromethoxy)-2-(3′-(5-fluoro-6-(pyrrolidin-1-ylmethyl)pyridin-3-yl)-2′-(fluoromethyl)-2-methyl-[1,1′-biphenyl]-3-yl)benzo[d]oxazol-5-yl)methyl)-L-proline], the IC50 is reported as 5 to 50 nM.
